Assay results: publication PMC9428149, “Tackling recalcitrant Pseudomonas aeruginosa infections in critical illness via anti-virulence monotherapy” (Nature Communications, 2022)

Experiments:
[1] = test system: pyocyanin production in PA14; assay: Pyocyanin production assay; conditions: PA14; 50µM of each inhibitor (method says 10 μM); vs vehicle
[2] = test system: pqsA promoter (PA14 PpqsA-GFPASV); assay: pqsA-GFP reporter expression; assay type: cell-based, Pseudomonas aeruginosa; conditions: PA14 PpqsA-GFPASV; 50µM per b210 (method b76 says 10 µM)
Experimental: The expression levels of pqsA, which is representative of the pqsABCDE operon transcription, were monitored in the presence of the MvfR inhibitors using PA14 cells containing the PpqsA-GFPASV, a reporter construct of the pqsA promoter fused to a short half-life GFP gene in, such that quantitative quenching of fluorescence corresponds to pqsA promoter repression[22],[32],[48]. […] GFP fluorescence levels were measured at λex = 485 nm/λem = 535 nm after 10 seconds of shaking every 15 min up to 12 h. The IC50 of PpqsA-GFP expression levels was performed as above using the same 13 different concentrations (0.0122–50 μM) for each of the 13 compounds tested.

[3] = test system: MvfR-regulated small molecules in PA14; assay: Production of HAQs, 2-AA, DHQ and AA in PA14 cultures (LC-MS); conditions: PA14, 50µM inhibitor; for % Production AA: anthranilic acid, precursor control
Experimental: The HAQs HHQ, PQS, HQNO, and non-HAQs: 2-AA and DHQ produced by PA14 cells were quantified in the presence of NAMs. The overnight grown starter culture was diluted 1:100 in 5 mL LB media in a glass tube and was allowed to grow in the presence (50 µM) or absence of compound at 37 °C and 200 rpm in an incubator shaker until OD600 was 3. Bacterial cultures were subsequently mixed 1:1 (400 μL: 400 μL) with 100% methanol containing 20 ppm (20 μg mL^−1) of tetradeutero-PQS (PQS-D4) and 10 ppm of tetradeutero-HHQ (HHQ-D4) in a 1.5 mL Eppendorf tube. The mixture was vortexed for 5 seconds and spun down for 5 minutes at 12,000 x g. A 700 μL aliquot of the supernatant was removed and stored in glass vials at −20 °C until further liquid chromatography-mass spectrophotometry (LC/MS) analysis as previously described in Lepine et al., 2003[66]. LC/MC analysis was performed using a Micromass Quattro II triple quadrupole mass spectrometer (Micromass Canada, Pointe-Claire, Canada) in positive electrospray ionization mode, interfaced to an HP1100 HPLC equipped with a 4.5 × 150 mm reverse-phase C8 column.
GraphPad Prism 9.2.0 software was used to plot the IC50 curve against the percent inhibition of these small molecules’ production at each concentration.

## Cc1cc(F)ccc1NCC(=O)Nc1ccccc1Br [D2]
[1]
  % Production Pyocyanin: 101%
[2]
  % Production pqsA-GFP: 96%

## CCc1ccccc1NCC(=O)Nc1ccc(C#N)cc1 [D3]
[1]
  % Production Pyocyanin: 97%
[2]
  % Production pqsA-GFP: 92%

## Cc1cc(F)ccc1NCC(=O)Nc1ccc(N2CCOCC2)cc1 [D5]
[1]
  % Production Pyocyanin: 102%
[2]
  % Production pqsA-GFP: 100%

## N#Cc1ccc(NC(=O)CNc2cccc(F)c2)cc1 [D6]
[1]
  % Production Pyocyanin: 91%
[2]
  % Production pqsA-GFP: 68%

## Cc1cc(F)ccc1NCC(=O)Nc1ccc(Br)cc1C [D7]
[1]
  % Production Pyocyanin: 89%
[2]
  % Production pqsA-GFP: 70%

## Cc1cc(F)ccc1NCC(=O)Nc1ccc(N2CCCC2=O)cc1 [D9]
[1]
  % Production Pyocyanin: 107%
[2]
  % Production pqsA-GFP: 105%

## Cc1cc(F)ccc1NCC(=O)Nc1cc(F)ccc1F [D10]
[1]
  % Production Pyocyanin: 90%
[2]
  % Production pqsA-GFP: 89%

## Cc1ccc(NC(=O)CNc2ccc(F)cc2C)c(Br)c1 [D12]
[1]
  % Production Pyocyanin: 108%
[2]
  % Production pqsA-GFP: 92%

## Cc1cc(F)ccc1NCC(=O)Nc1cccc(C#N)c1 [D13]
[1]
  % Production Pyocyanin: 100%
[2]
  % Production pqsA-GFP: 90%

## Cc1cc(F)ccc1NCC(=O)Nc1cccc([N+](=O)[O-])c1 [D14]
[1]
  % Production Pyocyanin: 85%
[2]
  % Production pqsA-GFP: 77%

## COc1ccc(NC(=O)CNc2ccc(F)cc2C)cc1 [D15]
[1]
  % Production Pyocyanin: 102%
[2]
  % Production pqsA-GFP: 87%

## N#Cc1ccc(NC(=O)CNc2ccc(Cl)cc2)cc1 [D16]
[1]
  % Production Pyocyanin: 43%
[2]
  % Production pqsA-GFP: 18%

## Cc1ccc(F)cc1NCC(=O)Nc1ccc(C#N)cc1 [D18]
[1]
  % Production Pyocyanin: 69%
[2]
  % Production pqsA-GFP: 28%

## Cc1cc(F)ccc1NCC(=O)Nc1ccc(C(=O)N(C)C)cc1 [D19]
[1]
  % Production Pyocyanin: 109%
[2]
  % Production pqsA-GFP: 100%

## Cc1ccc(NC(=O)CNc2ccc(F)cc2C)c(C)c1 [D21]
[1]
  % Production Pyocyanin: 113%
[2]
  % Production pqsA-GFP: 87%

## Cc1cc(F)ccc1NCC(=O)Nc1cccc(Cl)c1 [D22]
[1]
  % Production Pyocyanin: 96%
[2]
  % Production pqsA-GFP: 71%

## N#Cc1ccc(NCC(=O)Nc2ccc(F)cc2)cc1 [D24]
[1]
  % Production Pyocyanin: 59%
[2]
  % Production pqsA-GFP: 26%

## N#Cc1ccc(NC(=O)CNc2ccccc2F)cc1 [D25]
[1]
  % Production Pyocyanin: 97%
[2]
  % Production pqsA-GFP: 84%

## Cc1ccc(NCC(=O)Nc2ccc(C#N)cc2)cc1F [D28]
[1]
  % Production Pyocyanin: 60%
[2]
  % Production pqsA-GFP: 42%

## CC(=O)c1ccccc1NC(=O)CNc1ccc(F)cc1C [D30]
[1]
  % Production Pyocyanin: 91%
[2]
  % Production pqsA-GFP: 94%

## Cc1cc(NC(=O)CNc2ccc(F)cc2C)ccc1Br [D31]
[1]
  % Production Pyocyanin: 69%
[2]
  % Production pqsA-GFP: 47%

## COc1cccc(NC(=O)CNc2ccc(F)cc2C)c1 [D32]
[1]
  % Production Pyocyanin: 92%
[2]
  % Production pqsA-GFP: 94%

## CC(C)c1ccc(NCC(=O)Nc2ccc(C#N)cc2)cc1 [D33]
[1]
  % Production Pyocyanin: 59%
[2]
  % Production pqsA-GFP: 53%

## N#Cc1ccc(NC(=O)CCNc2ccc(F)cc2)cc1 [D34]
[1]
  % Production Pyocyanin: 91%
[3]
  % Production 2-AA: 113%
  % Production DHQ: 100%
  % Production HHQ: 97%
  % Production HQNO: 96%
  % Production PQS: 97%
  % Production AA: 101%
[2]
  % Production pqsA-GFP: 80%

## N#Cc1ccc(NC(=O)CC(=O)Nc2ccc(F)cc2)cc1 [D36]
[1]
  % Production Pyocyanin: 16%
[3]
  % Production 2-AA: 37%
  % Production DHQ: 68%
  % Production HHQ: 57%
  % Production HQNO: 59%
  % Production PQS: 47%
  % Production AA: 187%
[2]
  % Production pqsA-GFP: 10%

## N#Cc1ccc(NC(=O)C(=O)Nc2ccc(F)cc2)cc1 [D37]
[1]
  % Production Pyocyanin: 106%
[3]
  % Production 2-AA: 103%
  % Production DHQ: 105%
  % Production HHQ: 98%
  % Production HQNO: 99%
  % Production PQS: 110%
  % Production AA: 90%
[2]
  % Production pqsA-GFP: 97%

## Cc1cc(F)ccc1N1CCCC(NC(=O)c2ccc(C#N)cc2)C1 (centres unmarked) [D38]
[1]
  % Production Pyocyanin: 108%
[3]
  % Production 2-AA: 101%
  % Production DHQ: 84%
  % Production HHQ: 98%
  % Production HQNO: 100%
  % Production PQS: 96%
  % Production AA: 54%
[2]
  % Production pqsA-GFP: 90%

## Cc1cc(F)ccc1CCNC(=O)c1ccc(C#N)cc1 [D39]
[1]
  % Production Pyocyanin: 110%
[3]
  % Production 2-AA: 106%
  % Production DHQ: 96%
  % Production HHQ: 96%
  % Production HQNO: 102%
  % Production PQS: 93%
  % Production AA: 68%
[2]
  % Production pqsA-GFP: 91%

## Cc1cc(F)ccc1NC(=O)Cc1ccc(C#N)cc1 [D40]
[1]
  % Production Pyocyanin: 115%
[3]
  % Production 2-AA: 113%
  % Production DHQ: 85%
  % Production HHQ: 102%
  % Production HQNO: 109%
  % Production PQS: 100%
  % Production AA: 81%
[2]
  % Production pqsA-GFP: 96%

## N#Cc1ccc(NC(=O)CCC(=O)Nc2ccc(F)cc2)cc1 [D47]
[1]
  % Production Pyocyanin: 99%
[3]
  % Production 2-AA: 100%
  % Production DHQ: 100%
  % Production HHQ: 95%
  % Production HQNO: 93%
  % Production PQS: 94%
  % Production AA: 42%
[2]
  % Production pqsA-GFP: 78%

## Nc1cc([N+](=O)[O-])ccc1NC(=O)CC(=O)Nc1ccc(Oc2ccccc2)cc1 [D60]
[1]
  % Production Pyocyanin: 6%

## N#Cc1ccc(NC(=O)CC(=O)Nc2cccc(F)c2)cc1 [D72]
[1]
  % Production Pyocyanin: 30%

## N#Cc1ccc(NC(=O)CC(=O)Nc2cccc(C#N)c2)cc1 [D75]
[1]
  % Production Pyocyanin: 49%

## N#Cc1ccc(NC(=O)CC(=O)c2ccc(F)cc2)cc1 [D76]
[1]
  % Production Pyocyanin: 77%

## N#Cc1ccc(NC(=O)CC(=O)Nc2ccc(C#N)cn2)cc1 [D78]
[1]
  % Production Pyocyanin: 14%

## N#Cc1ccc(/C=C/C(=O)Nc2ccc(C#N)cc2)cc1 [D83]
[1]
  % Production Pyocyanin: 114%

## N#Cc1ccc(NC(=O)CC(=O)Cc2ccc(F)cc2)cc1 [D84]
[1]
  % Production Pyocyanin: 102%

## N#Cc1ccc(NC(=O)C=CC(=O)Nc2ccc(F)cc2)cc1 [D86]
[1]
  % Production Pyocyanin: 88%

## N#Cc1ccc(NC(=O)CC(O)Cc2ccc(F)cc2)cc1 (centres unmarked) [D89]
[1]
  % Production Pyocyanin: 95%

## N#Cc1ccc(NC(=O)CC(=O)Nc2ccc(C#N)nc2)cn1 [D91]
[1]
  % Production Pyocyanin: 43%
[2]
  % Production pqsA-GFP: 39%

## N#Cc1ccc(NC(=O)CC(=O)Nc2ccc(Oc3ccccc3)cc2)c(N)c1 [D92]
[1]
  % Production Pyocyanin: 4%
[2]
  % Production pqsA-GFP: 1%

## N#Cc1ccc(NC(=O)CC(Nc2ccc(Oc3ccccc3)cc2)C(F)(F)F)cc1 (centres unmarked) [D93]
[1]
  % Production Pyocyanin: 91%
[2]
  % Production pqsA-GFP: 88%

## CC(F)(C(=O)Nc1ccc(C#N)cc1)C(=O)Nc1ccc(C#N)cc1 [D94]
[1]
  % Production Pyocyanin: 52%
[2]
  % Production pqsA-GFP: 85%

## N#Cc1ccc(NC(=O)C(F)C(=O)Nc2ccc(C#N)cc2)cc1 [D96]
[1]
  % Production Pyocyanin: 34%
[2]
  % Production pqsA-GFP: 42%

## N#Cc1ccc(NC(=O)C(F)(F)C(=O)Nc2ccc(C#N)cc2)cc1 [D97]
[1]
  % Production Pyocyanin: 94%
[2]
  % Production pqsA-GFP: 95%

## O=C(CC(=O)Nc1ccc(C(F)(F)F)cc1)Nc1ccc(Oc2ccccc2)cc1 [D98]
[1]
  % Production Pyocyanin: 42%
[2]
  % Production pqsA-GFP: 29%
